Test results from publication PMC7083851, “Extended pharmacodynamic responses observed upon PROTAC-mediated degradation of RIPK2” (Communications Biology, 2020).
Several values for one entry are separate records, joined by “and”; a condition that tells them apart may be missing. Equal values may be shown once.

What was measured:
cIAP1 = target: T1, cIAP1 (Homo sapiens, UniProt Q13490); assay type: cell-based; conditions: human PBMCs, 24 h, 1uM
T1 construct: endogenous in cells; host or cells: primary human PBMCs
Method: Where the assessment of cytokines was performed, L18-MDP was added to the cell culture media (1 μg/ml) or to the rat blood samples (100 ng/ml) and samples were incubated for up to 4 h. […] Samples were them spun down at 1000 g and the cell culture supernatant, plasma or serum were collected for cytokines assessment, while cell pellets were used for RIPK2 and/or cIAP1, cIAP2, and XIAP levels analysis via immunoblotting.
Simple Western immunoassay: Cell lysates were mixed with 5× concentrated master mix (Protein Simple) and denatured at 95 °C on a heat block for 5 min together with the provided ladder (Protein Simple). Antibodies were diluted in the provided buffer as following: anti-RIPK2 (1:10 or 1:50), anti-cIAP1(1:10), anti-cIAP2 (1:10), anti-XIAP (1:10), mouse anti-β-actin (Abcam - 1:1000), rabbit anti-β-actin (Abcam - 1:50) and anti-vinculin (1:100). All reagents (blocking buffer, primary and secondary antibodies, streptavadin, luminol/peroxide, separation matrix, stacking matrix and water) were added to the Protein Simple plate containing the ladder and lysates and the plate was placed in a Protein Simple Western instrument and the Simple Western default size assay protocol was used. […] The area under the peak values obtained for RIPK2, cIAP1, cIAP2 or XIAP were normalized relative to the control protein values.

[1] = Blood concentrations after subcutaneous dosing in rat PK/PD studies; assay type: in vivo; conditions: rat, […] Q3D SC
Method: Female CD rats (7–8 weeks old on arrival, Charles River Ltd.) were placed into groups using a randomization schedule based on body weight prior to the study start. All animals were acclimatized for a minimum of one week prior to the experiment commencing. […] PROTAC 4 was dissolved in saline with the pH adjusted to 5.0 with sodium hydroxide (1 M).

[2] = system: L18-MDP-induced cytokine release; assay: In vivo L18-MDP acute inflammation model, distal colon cytokines; set-up: species or system rat; key to cytokine level (fig 6g) / cytokine level (fig 6h) / cytokine level (fig 6i): cytokine concentration in pg/ml (MSD U-Plex); conditions: for cytokine level (fig 6g) / cytokine level (fig 6i) / cytokine level (fig 6h): distal colon, individual rats, beside L18-MDP control
Method: Cytokine levels were determined in serum generated from the terminal blood samples and in tissue lysates as detailed below.
(§1) Cytokine measurement assay: Cytokine levels were measured in rat plasma or rat PBMCs cell culture supernatants using rat V-Plex TNFα, in human plasma or human PBMCs cell culture supernatants with either TNFα tissue culture or 7-plex kit. Rat serum and tissues samples from the in vivo L18-MDP acute inflammation model were analyzed using the rat TNFα, Il-6 and IL-8 U-Plex kits. All kits provided by Meso Scale Discovery (MSD). Levels of cytokines spontaneously released from human colon biopsies cell culture supernatants were measured using Human IL-1 beta/IL-1F2 DuoSet ELISA (Bio-techne), Human IL-6 ELISA (Immunotools) and Human TNF-alpha DuoSet ELISA (Bio-techne). All samples were processed accordingly to the manufacturer’s instructions. The MSD plates were analyzed using the MSD sector imager 6000 plate reader and cytokines concentration (pg/ml) was obtained by using the MSD DISCOVERY WORKBENCH software version 4.0.12.1

[3] = system: spontaneous IL-1β, IL-6, and TNFα release; assay: Spontaneous cytokine release (IL-1β, IL-6, TNFα) from Crohn's disease patient intestinal biopsies; assay type: cell-based, human; conditions: for IL-1b (Ctrl=DMSO = 100) / IL-6 (Ctrl=DMSO = 100) / TNFa (Ctrl=DMSO = 100): individual biopsies, fig 4e
Method: Colonic biopsies or tissues were obtained during endoscopy or via surgical resection from Crohn’s Disease (CD) or Ulcerative Colitis (UC) patients (St Bartholomew’s Hospital, London). All patients gave informed written consent. For surgical specimens, the mucosa was dissected away from the submucosa and cut into pieces of ~10–20 mg. […] The supernatants were collected for cytokine measurement as detailed in cytokines assay section while tissues were used to determine RIPK2 levels.
as §1

T1 sequence (Q13490 whole entry): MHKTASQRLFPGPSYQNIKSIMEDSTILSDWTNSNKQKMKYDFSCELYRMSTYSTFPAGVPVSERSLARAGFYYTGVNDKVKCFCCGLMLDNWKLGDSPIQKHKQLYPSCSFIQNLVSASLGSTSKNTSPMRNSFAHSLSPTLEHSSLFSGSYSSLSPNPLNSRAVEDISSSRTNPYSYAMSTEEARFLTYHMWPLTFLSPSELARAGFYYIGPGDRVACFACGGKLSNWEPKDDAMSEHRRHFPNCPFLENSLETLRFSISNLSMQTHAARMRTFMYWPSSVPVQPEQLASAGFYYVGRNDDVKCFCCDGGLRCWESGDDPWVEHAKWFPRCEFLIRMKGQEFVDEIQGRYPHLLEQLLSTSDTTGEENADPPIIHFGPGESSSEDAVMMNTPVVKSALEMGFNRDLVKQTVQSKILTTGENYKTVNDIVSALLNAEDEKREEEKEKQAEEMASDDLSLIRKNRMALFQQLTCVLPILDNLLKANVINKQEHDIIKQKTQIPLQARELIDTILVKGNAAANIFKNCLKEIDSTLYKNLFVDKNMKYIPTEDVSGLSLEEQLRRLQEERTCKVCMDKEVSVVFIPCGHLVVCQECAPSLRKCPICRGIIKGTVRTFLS

With `CN[C@@H](C)C(=O)N[C@H](C(=O)N1C[C@@H](NC(=O)c2cnc(N3CCN(CCCOc4cc5ncnc(Nc6n[nH]c(C)c6C)c5cc4S(=O)(=O)C(C)(C)C)CC3)cn2)C[C@H]1C(=O)Nc1c(F)cccc1F)C(C)(C)C` [PROTAC 6] the “reduction in cIAP1 levels” value (cIAP1) was ~ 25%, the “time drug levels were maintained above the LLQ after the first dose” value [1] was 24 h and the “cytokine level (fig 6g)” value ([2]; time 6 h) was 8.69 and 8.02 and 5.35 and 6.46 and 7.8. The “cytokine level (fig 6i)” value ([2]; time 6 h) was 31.46 and 23.18 and 30.08 and 19.04 and 32.01, the “cytokine level (fig 6h)” value ([2]; time 6 h) was 3.67 and 4.23 and 2.54 and 4.43 and 8.37 and the “cytokine level (fig 6g)” value ([2]; time 24 h) was 4.03 and 4.53 and 7.05 and 7.3. The “cytokine level (fig 6i)” value ([2]; time 24 h) was 16.22 and 17.82 and 19.15 and 9.84 and 7.71, the “cytokine level (fig 6h)” value ([2]; time 24 h) was 8.38 and 32.32 and 14.19 and the “cytokine level (fig 6g)” value ([2]; time 72 h) was 28.89 and 34.42 and 15.25 and 46.36 and 44.94. For the same molecule, the “cytokine level (fig 6i)” value ([2]; time 72 h) was 33.56 and 43.62 and 27.96 and 81.66 and 38.4, the “cytokine level (fig 6h)” value ([2]; time 72 h) was 48.27 and 55.56 and 29.21 and 61.98 and 48.03 and the “cytokine level (fig 6g)” value ([2]; time 240 h) was 191.84 and 104.55 and 3.3 and 94.35. For the same molecule, the “cytokine level (fig 6i)” value ([2]; time 240 h) was 85.43 and 111.93 and 35.63 and 31.07, the “cytokine level (fig 6h)” value ([2]; time 240 h) was 84.17 and 74.27 and 51.45 and 69.43 and the “cytokine level (fig 6g)” value ([2]; time 408 h) was 87.06 and 148.63 and 32.92 and 94.97 and 44.56. The “cytokine level (fig 6i)” value ([2]; time 408 h) was 82.16 and 113.16 and 73.99 and 122.46 and 42.47, the “cytokine level (fig 6h)” value ([2]; time 408 h) was 89.41 and 138.46 and 73.92 and 116.87 and 57.61 and the “release of TNFα and IL-8 in distal colon, in words” value ([2]; rat, 0.3 mg/kg SC, intravenous L18-MDP challenge) was “significantly inhibited for up to six days post-dose”. The IC50 ([3]; Homo sapiens, 24 h, read-out: IC50 inhibition of spontaneous cytokine release) was 1 to 3 nM, the “IL-1b (Ctrl=DMSO = 100)” value ([3]; compound concentration 0.05 nM) was 94 and 86 and 97 and the “IL-6 (Ctrl=DMSO = 100)” value ([3]; compound concentration 0.05 nM) was 105 and 101 and 86. For the same molecule, the “TNFa (Ctrl=DMSO = 100)” value ([3]; compound concentration 0.05 nM) was 90 and 96, the “IL-1b (Ctrl=DMSO = 100)” value ([3]; compound concentration 0.5 nM) was 59 and 61 and 39 and 57 and the “IL-6 (Ctrl=DMSO = 100)” value ([3]; compound concentration 0.5 nM) was 98 and 80 and 79 and 97 and 84 and 33. For the same molecule, the “TNFa (Ctrl=DMSO = 100)” value ([3]; compound concentration 0.5 nM) was 87 (2×) and 88 and 52, the “IL-1b (Ctrl=DMSO = 100)” value ([3]; compound concentration 5 nM) was 50 and 72 and 71 and 12 and 58 and 31 and 5 and 56 and 44 and 41 (2×) and 49 and 74 and 81 and the “IL-6 (Ctrl=DMSO = 100)” value ([3]; compound concentration 5 nM) was 56 and 35 and 85 (2×) and 14 (2×) and 49 and 48 and 89 and 101 and 72 and 66 and 70 and 53. For the same molecule, the “TNFa (Ctrl=DMSO = 100)” value ([3]; compound concentration 5 nM) was 38 and 23 and 69 (2×) and 35 (2×) and 42 and 24 and 87 and 58 and 34 and 11 and 66 and 31 and 41, the “IL-1b (Ctrl=DMSO = 100)” value ([3]; compound concentration 50 nM) was 12 (2×) and 26 and 66 and 31 and 32 and 4 and 29 and 9 and 18 and 69 and 5 and 52 and 14 and the “IL-6 (Ctrl=DMSO = 100)” value ([3]; compound concentration 50 nM) was 35 and 29 and 12 (2×) and 31 (2×) and 16 (2×) and 75 and 44 and 24 and 50 and 63 and 23 and 57. The “TNFa (Ctrl=DMSO = 100)” value ([3]; compound concentration 50 nM) was 42 and 16 and 50 (2×) and 37 (2×) and 0 and 30 (2×) and 24 and 78 and 25 and 60 and 34 and 59.
